In US10047105B2, “Gyrase inhibitors” (Merck Sharp & Dohme Corp., priority 2009, dated 2018):
Converted amounts (≈) assume the structure as drawn.

Legend:
S. aureus ATCC 13709 = experiment: MIC, antibacterial potency, S. aureus; format: cell-based; settings: S. aureus
S. pneumoniae ATCC 51916 = experiment: MIC, S. pneumoniae; format: cell-based; settings: S. pneumoniae

| SMILES | MIC, SA (S. aureus ATCC 13709) [µg/mL] | MIC Spn52 (S. pneumoniae ATCC 51916) [µg/mL] |
| --- | --- | --- |
| CCc1[nH]c2nc(Sc3nc(C(=O)O)cs3)nc(N3CCC(=O)C3)c2c1Cl.O=C(O)C(F)(F)F [700,357] | > 64 | > 64 |
| CCc1[nH]c2nc(Sc3nc4ncccc4c(=O)[nH]3)nc(N3CC(O)C3)c2c1Br [700,358] | > 64 | > 64 |
| CCc1[nH]c2nc(Sc3cc(=O)[nH]c(=O)[nH]3)nc(N3CC(O)C3)c2c1Cl [700,359] | 2 (≈ 5.07 µM) | 8 (≈ 20.3 µM) |
| CCc1[nH]c2nc(Sc3cc(=O)[nH]c(=O)[nH]3)nc(N3CC(O)C3)c2c1Br [700,360] | ≤ 0.5 | 2 (≈ 4.55 µM) |
| Cc1[nH]c2nc(Sc3cc(=O)[nH]c(=O)[nH]3)nc(N3CC(O)C3)c2c1Br [700,362] | > 64 | > 64 |
| CCOc1nc(Nc2cnc3ccccc3c2)nc2[nH]c(CC)c(Br)c12.O=C(O)C(F)(F)F [700,363] | > 64 | > 64 |
| CCc1[nH]c2nc(Sc3nc(C(=O)NOC)cs3)nc(N3CCN(C(C)=O)CC3)c2c1Cl.O=C(O)C(F)(F)F [700,364] | 32 | > 64 |
| CCc1[nH]c2nc(Sc3nc(C(=O)N4CCOCC4)cs3)nc(N3CCN(C(C)=O)CC3)c2c1Cl.O=C(O)C(F)(F)F [700,365] | > 64 | > 64 |
| CCc1[nH]c2nc(Sc3cc(-n4cccn4)nc(C)n3)nc(NCC3CCCO3)c2c1Cl (centres unmarked) [700,373] | > 64 | > 64 |
| CCc1[nH]c2nc(Cn3cncn3)nc(N3CCN(C(C)=O)CC3)c2c1Br [700,374] | > 64 | > 64 |
| CCOc1nc(Nc2cnc3cccnc3n2)nc2[nH]c(CC)c(Br)c12.Cl.Cl [700,378] | > 64 | > 64 |
| CCOc1nc(Nc2cnc3c(cnn3C(C)C)c2)nc2[nH]c(CC)c(Br)c12.O=C(O)C(F)(F)F [700,381] | 1 | 8 |
| CCc1[nH]c2nc(Nc3cnc4c(cnn4C(C)C)c3)nc(N3CC(O)C3)c2c1Br [700,385] | 8 (≈ 17 µM) | > 64 |
| CCOC(=O)Cn1c(=O)cc(Sc2nc(N3CC(O)C3)c3c(Br)c(CC)[nH]c3n2)[nH]c1=O [700,386, Ethyl 2-(4-(5-bromo-6-ethyl-4-(3-hydroxyazetidin-1-yl)-7H-pyrrolo[2,3-d]pyrimidin-2-ylthio)-2,6-dioxo-2,3-dihydropyrimidin-1 (6H)-yl)acetate] | ≤ 0.5 | 8 (≈ 15.2 µM) |
| CCc1[nH]c2nc(Sc3nc(-c4nnc(C)o4)cs3)nc(N3CC(O)C3)c2c1Cl.Cl.Cl.Cl [700,387] | 16 | > 64 |
| CCOc1nc(Nc2ccc3cccnc3c2)nc2[nH]c(CC)c(Br)c12.O=C(O)C(F)(F)F [700,388] | 4 | 16 |

| SMILES | MIC, SA (S. aureus ATCC 13709) [µg/mL] | MIC Spn52 (S. pneumoniae ATCC 51916) [µg/mL] |
| --- | --- | --- |
| CCOc1nc(Nc2cc(OC)c(OC)c(OC)c2Br)nc2[nH]c(CC)c(Br)c12.O=C(O)C(F)(F)F [700,389] | > 64 | > 64 |
| CCc1[nH]c2nc(Sc3cnc4cccnc4n3)nc(N3CC(NC(=O)OCc4ccccc4)C3)c2c1Br [700,390] | ≤ 0.5 | ≤ 0.5 |
| CCc1[nH]c2nc(Sc3nc(C(=O)O)c(Cl)s3)nc(N3CC(O)C3)c2c1Br [700,391] | > 64 | > 64 |
| CCc1[nH]c2nc(Sc3cnc4nccnc4c3)nc(N3CC(O)C3)c2c1Br [700,392] | ≤ 0.5 | ≤ 0.5 |
| CCc1[nH]c2nc(Sc3cnc4nccnc4c3)nc(N3CC(O)C3)c2c1Cl [700,393] | ≤ 0.5 | 1 (≈ 2.42 µM) |
| CCc1[nH]c2nc(Sc3nc(C(=O)O)co3)nc(N3CC(O)C3)c2c1Cl.O=C(O)C(F)(F)F.O=C(O)C(F)(F)F [700,395] | > 64 | > 64 |
| CCc1[nH]c2nc(Sc3nc(C(=O)O)cs3)nc(N3CCOCC3)c2c1Cl.O=C(O)C(F)(F)F [700,396] | > 64 | > 64 |
| CCc1[nH]c2nc(Sc3nc(C(=O)NOC)cs3)nc(N3CCOCC3)c2c1Cl.O=C(O)C(F)(F)F [700,397] | > 64 | > 64 |
| CCc1[nH]c2nc(Sc3nc(C(=O)O)cs3)nc(N3CCNCC3)c2c1Cl.O=C(O)C(F)(F)F [700,398] | > 64 | > 64 |
| CCc1[nH]c2nc(Sc3cc(=O)n(CC(=O)O)c(=O)[nH]3)nc(N3CC(O)C3)c2c1Br [700,402] | > 64 | > 64 |
| CCc1[nH]c2nc(Sc3ccc4c(N5CCNCC5)ccnc4c3)nc(N3CC(O)C3)c2c1Br [700,403] | 4 (≈ 7.4 µM) | 8 (≈ 14.8 µM) |
| CCc1[nH]c2nc(Sc3cnc4nccnc4c3)nc(N3CC(NC(=O)OCc4ccccc4)C3)c2c1Br [700,404] | ≤ 0.5 | ≤ 0.5 |
| CCc1[nH]c2nc(Sc3cnc4c(c3)ncn4CC)nc(N3CC(O)C3)c2c1Br [700,405] | ≤ 0.5 | 2 (≈ 4.22 µM) |
| CCOc1nc(Nc2cnc3c(cnn3C(C)C)c2)nc2[nH]c(CC)c(Cl)c12.O=C(O)C(F)(F)F [700,406] | 2 | 16 |
| CCc1[nH]c2nc(Sc3nc(C(=O)O)cs3)nc(N(C)C)c2c1Cl.O=C(O)C(F)(F)F [700,407] | > 64 | > 64 |
